In US20030031689A1, “Method of skin exfoliation” (priority 2001, published 2003):

Experiments:
[1] = system: skin flakiness (stratum corneocytes on the back of the hand); experiment: Reduction of skin flakiness (D-Squame discs, image analysis) after twice daily topical application to the hand; format: in vivo, human; conditions: used at 2%
Text: In tests conducted to compare the efficacy of various agents of this type, mannose-6-phosphate caused a reduction in skin flakiness that exceeded the reduction achieved by N-acetyl glucosamine, lactobionic acid, and various mixtures of alpha hydroxy acids, all used at the same or higher levels than the mannose-6-phosphate. In a representative test, mannose-6-phosphate used at 1% reduced skin flakiness, a common measure of exfoliation efficacy, at a level of 24% after two weeks of treatment and 36% at four weeks. […] Thus, mannose-6-phosphate is particularly and unexpectedly effective for desquamation.
Thirty female subjects between the ages of 21 and 65 are selected to test the efficacy of mannose-6-phosphate in reducing skin flakiness, an indicator of exfoliation efficacy. The subjects are instructed not to use moisturizers or any other products on their hands, and their baseline measurements are taken. […] At the end of two and four weeks the subjects return for testing without applying the product for at least 12 hours and they are re-evaluated under the same conditions. […]
To evaluate the efficacy of the treatment products, four D-Squame discs are firmly and evenly pressed on the back of each hand with a hand held uniform pressure device and removed by gently pulling away from the skin. […] Desquamation is evaluated from the D-Squame discs via an OPTIMA image analyzer. […]

[2] = system: Normal Human Dermal Fibroblasts(NHDF); experiment: Glycosaminoglycan synthesis by 3H-glucosamine incorporation in fibroblast cultures; format: cell-based; conditions: 48 hours
Protocol: Both mannose and mannose-6-phosphate are tested at various levels from 0.01 mg/ml to 1 mg/ml for their ability to increase the amount of glycosaminoglycans in Normal Human Dermal Fibroblasts(NHDF), using TGF- at 5 and 10 ng/ml as a positive control. NHDF cells are seeded and grown to confluence in a 24 well plate prior to being treated with the test extracts(n=3). At the same time as the treatment, the cultures are labeled with […] of ^3H-glucosamine. The cultures are incubated for 48 hours and extensively washed to remove unbound ^3H-glucosamine prior to being lysed and counted on a scintillation counter. The resulting counts represent newly synthesized glycosaminoglycans. Since glucosamine is required for glycosaminoglycan synthesis, the radioactive glucosamine added to the culture will be incorporated into any glycosaminoglycans synthesized after the addition of the treatment samples. Relative protein levels are determined by comparing the absorbance at 280 nm, of the cell lysates, to the absorbances of a bovine serum albumin curve. […] TGF-, the positive control, is found to increase levels by 28% at 10 ng/ml.

Compound | reduction in skin flakiness ([1]; after two weeks of treatment) | reduction in skin flakiness ([1]; at four weeks) | increase of glycosaminoglycan levels (normalized to protein levels) ([2]; 0.1 mg/ml) | effect on glycosaminoglycan levels ([2]; levels lower and higher than 0.1 mg/ml (tested 0.01 mg/ml to 1 mg/ml))
O=C(O)[C@H](O)[C@@H](O)[C@H](O[C@@H]1O[C@H](CO)[C@H](O)[C@H](O)[C@H]1O)[C@H](O)CO [lactobionic acid] | 16% | 25% |  | 
O=C[C@@H](O)[C@@H](O)[C@H](O)[C@H](O)COP(=O)(O)O [mannose-6-phosphate] |  |  | 20% | did not have any significant effect
